pEC50: −log10 of the molar value. The source made the active and inactive calls. No cut-off for these calls is given here.

Data set [1] concerns Leishmania donovani. Put plainly: Induction of apoptosis in Leishmania donovani Ag83 promastigotes assessed as early apoptotic cells measured at 5 uM after 24 hrs by Annexin V-FITC/PI staining based flow cytometric analysis (reference value: 0.00%). Type of data set: functional. For orientation: Flow cytometry measures light scatter and fluorescence of single cells or particles in a stream.

Data set [2] deals with Leishmania donovani. Put plainly: Induction of apoptosis in Leishmania donovani Ag83 promastigotes assessed as increase in apoptotic cells measured at 5 uM after 1.5 hrs by Annexin V-FITC/PI staining based flow cytometric analysis. The format is functional, organism-based.
Data set [3] concerns Leishmania donovani. In words: Antileishmanial activity against antimony resistant Leishmania donovani BHU575 promastigotes assessed as cell viability by MTT assay. Type of data set: functional, organism-based. On the technique in general: Formazan colour is commonly taken as a measure of viable cells.
Data set [4] is described as follows: Toxicity in BALB/c mouse infected with Leishmania donovani Ag83 promastigotes assessed as change in body weight treated after 3 weeks of infection at 5 to 10 mg/kg, ip twice a week for 3 weeks. Type of data set: organism-based. As to conditions: in vivo, dose 5-10 mg/kg.
Data set [5] deals with Leishmania donovani. Put plainly: Stabilization of Leishmania donovani promastigotes Top1-DNA complex assessed as formation of SDS-KCl precipitable complex incubated for 110 mins by anti-BrdU staining based spectrophotometric analysis.
In data set [6] the test system is Leishmania donovani. Put plainly: Induction of cell cycle arrest in Leishmania donovani Ag83 promastigotes assessed as decrease in accumulation of cells in G2/M phase at 5 uM measured after 6 hrs by PI staining based flow cytometry (reference value: 15.1 %). Type of data set: functional. On the set-up: scale not given: the % may be the effect or the level left.

Data set [7] deals with Leishmania donovani. Put plainly: Induction of cell cycle arrest in antimony resistant Leishmania donovani BHU575 promastigotes assessed as decrease in accumulation of cells in G2/M phase at 5 uM measured after 6 hrs by PI staining based flow cytometry (reference value: 8.8%). The format is functional. The arrangement: scale not given: the % may be the effect or the level left.

Data set [8] has as its system Leishmania donovani. Put plainly: Antileishmanial activity against Leishmania donovani Ag83 promastigotes infected in BALB/c mouse model of visceral leishmaniasis assessed as fold change in T-helper type 1 immunological evoke response in splenocytes by measuring decrease in TGF-beta level treated after 3 weeks of infection at 5 to 10 mg/kg, ip twice a week for 3 weeks by RT-PCR analysis. The format is functional. To be noted: dose 5-10 mg/kg.

The target of data set [9] is T1, DNA topoisomerase 1 (Homo sapiens) (UniProt P11387).
T1 sequence (whole entry): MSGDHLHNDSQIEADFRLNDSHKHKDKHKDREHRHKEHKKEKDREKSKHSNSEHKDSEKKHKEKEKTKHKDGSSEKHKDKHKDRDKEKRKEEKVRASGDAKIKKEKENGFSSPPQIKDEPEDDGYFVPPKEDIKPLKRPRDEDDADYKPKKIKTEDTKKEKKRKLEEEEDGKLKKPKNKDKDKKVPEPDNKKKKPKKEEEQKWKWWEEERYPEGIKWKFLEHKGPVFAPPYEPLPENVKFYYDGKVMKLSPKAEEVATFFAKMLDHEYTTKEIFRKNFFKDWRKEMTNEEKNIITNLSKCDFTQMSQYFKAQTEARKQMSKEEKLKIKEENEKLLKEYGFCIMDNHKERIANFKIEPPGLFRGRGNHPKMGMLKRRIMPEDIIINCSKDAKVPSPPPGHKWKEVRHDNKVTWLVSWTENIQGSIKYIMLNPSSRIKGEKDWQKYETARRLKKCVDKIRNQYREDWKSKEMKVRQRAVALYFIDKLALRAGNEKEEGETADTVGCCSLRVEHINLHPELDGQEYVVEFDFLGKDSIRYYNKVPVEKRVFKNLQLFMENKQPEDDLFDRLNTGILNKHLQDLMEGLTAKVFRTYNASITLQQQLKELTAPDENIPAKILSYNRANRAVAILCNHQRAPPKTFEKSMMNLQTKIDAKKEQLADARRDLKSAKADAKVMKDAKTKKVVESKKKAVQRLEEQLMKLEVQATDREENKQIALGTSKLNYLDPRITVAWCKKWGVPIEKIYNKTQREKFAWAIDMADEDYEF
Put plainly: Inhibition of human recombinant Top1 infected in Sf9 cells assessed as plasmid DNA relaxation upto 100 uM measured after 30 mins.

Data set [10] has as its system Leishmania donovani. Put plainly: Antileishmanial activity against Leishmania donovani Ag83 promastigotes infected in BALB/c mouse model of visceral leishmaniasis assessed as fold change in T-helper type 1 immunological evoke response in splenocytes by measuring increased IFN-gamma cytokine level treated after 3 weeks of infection at 5 mg/kg, ip twice a week for 3 weeks by RT-PCR analysis. Type of data set: functional.

Data set [11] has as its system Leishmania donovani. In words: Antileishmanial activity against Leishmania donovani Ag83 promastigotes infected in BALB/c mouse assessed as reduction of amastigote burden by measuring parasite count in blood treated after 3 weeks of infection at 5 to 10 mg/kg, ip twice a week for 3 weeks by qPCR based kineto-plastid DNA. Type of data set: functional, organism-based. As to conditions: dose 5-10 mg/kg. On the technique in general: Quantitative PCR measures a nucleic acid by following its amplification.

A further data set has as its system HEK293. Put plainly: Potency index ratio of test compound IC50 to camptothecin IC50 for cytotoxicity against HEK293 cells. The format is functional, Homo sapiens.
Data set [12] has as its system Leishmania donovani. In words: Induction of apoptosis in Leishmania donovani Ag83 promastigotes assessed as viable cells measured at 5 uM after 12 hrs by Annexin V-FITC/PI staining based flow cytometric analysis (reference value: 99.4%). The format is functional.
The subject of data set [13] is Leishmania donovani. In words: Induction of cell cycle arrest in Leishmania donovani Ag83 promastigotes assessed as decrease in accumulation of cells in S phase at 5 uM measured after 6 hrs by PI staining based flow cytometry (reference value: 18.1%). Type of data set: functional. On the set-up: scale not given: the % may be the effect or the level left.
Data set [14] has as its system Leishmania donovani. Put plainly: Stabilization of Leishmania donovani recombinant topoisomerase I/25-mer duplex oligonucleotide DNA complex assessed as fold change in stabilization at 5 to 25 uM measured after 30 mins. As to conditions: dose 5-25 µM.
In data set [15] the test system is Leishmania donovani. Put plainly: Induction of apoptosis in Leishmania donovani Ag83 promastigotes assessed as necrotic cells measured at 5 uM after 12 hrs by Annexin V-FITC/PI staining based flow cytometric analysis. Type of data set: functional, organism-based.
In data set [16] the test system is Leishmania donovani. Put plainly: Induction of cell cycle arrest in antimony resistant Leishmania donovani BHU575 promastigotes assessed as decrease in accumulation of cells in G2/M phase at 5 uM measured after 24 hrs by PI staining based flow cytometry (reference value: 8.8%). The format is functional. On the set-up: scale not given: the % may be the effect or the level left.

Data set [17] relates to Leishmania donovani. In words: Antileishmanial activity against Leishmania donovani Ag83 promastigotes infected in BALB/c mouse model of visceral leishmaniasis assessed as fold change in T-helper type 1 immunological evoke response in splenocytes by measuring decrease in IL-10 level treated after 3 weeks of infection at 5 to 10 mg/kg, ip twice a week for 3 weeks by RT-PCR analysis. The format is functional. As to conditions: dose 5-10 mg/kg.

In data set [18] the test system is Leishmania donovani. In words: Induction of cell cycle arrest in antimony resistant Leishmania donovani BHU575 promastigotes assessed as decrease in accumulation of cells in S phase at 5 uM measured after 6 hrs by PI staining based flow cytometry (reference value: 9.8%). Type of data set: functional. The arrangement: scale not given: the % may be the effect or the level left.

The subject of data set [19] is Leishmania donovani. Put plainly: Induction of apoptosis in Leishmania donovani Ag83 promastigotes assessed as necrotic cells measured at 5 uM after 24 hrs by Annexin V-FITC/PI staining based flow cytometric analysis (reference value: 0.5%). Type of data set: functional.

As to `COc1cc(-c2nc3ccccc3c3nc4ccccn4c23)cc(OC)c1OC`, the Activity is 4.9% in the data set with Leishmania donovani [1]; “Non-Toxic” in [4]; 27.7% in the data set with Leishmania donovani [6]; 2.6% with Leishmania donovani [7]; 2% in the data set on Leishmania donovani [12]; 13.6% in the data set with Leishmania donovani [13]. Also, the Activity in the data set on Leishmania donovani [16] amounted to 33.6%; in the data set with Leishmania donovani [18] it was 24.5%; in the data set on Leishmania donovani [19] it was 23.1%. In addition, the outcome in the data set on Leishmania donovani [2], with Leishmania donovani [5], in the data set on Leishmania donovani [11] and with Leishmania donovani [15] was Active. The pEC50 in the data set on Leishmania donovani [3] is 5.32. The “fold change (FC)” value is 2 in the data set on Leishmania donovani [8], 4 in the data set with Leishmania donovani [10], 2 with Leishmania donovani [14] and 2 in the data set with Leishmania donovani [17]. In [9], the inhibition entry was “inactive”. For the same compound, the “Ratio IC50” value with HEK293 is reported as 90.

A word on the pEC50: it is −log10 of the EC50, conventionally taken in molar units.
